Tested on: rat cardiac allograft
Test: Protective effect of the compound (a) combined with FK506 on rat cardiac allograft
Format: in vivo
Details: single-drug group: FK506 0.32 mg/kg, daily gastric intubation for 14 days; Lewis donor to ACI recipient heterotopic cardiac transplantation
Procedure: Test 2: Protective Effect of the Compound (a) Combined with FK 506 on Rat Cardiac Allograft
Experiments were performed on male Lewis and ACI rats weighing 175-200 g. Rats were anesthetized with sodium pentobarbital (50 mg/kg, i.p.), and underwent allogeneic (Lewis donor to ACI recipient) heterotopic intra-abdominal cardiac transplantation. Experimental groups were divided into single-drug group and combined-drug group. Single-drug dose of FK506, which was prepared in a manner similar to that disclosed in EP-0184162, was 0.32 mg/kg. Combined-drug dose was FK506 (0.32 mg/kg)+the compound (a) (10 mg/kg). The grafted hearts were monitored by daily palpation where complete rejection was defined as the cessation of palpable contractile activity. Each drug was suspended in a solution of 0.5% methylcellulose, and administered by daily gastric intubation in a volume of 5 ml/kg of body weight for 14 days.
The combination of the compound (a) and an immunosuppressive agent (FK506) was examined to determine whether it could improve rat cardiac allograft survival.

SMILES: C=CC[C@@H]1/C=C(\C)C[C@H](C)C[C@H](OC)[C@H]2O[C@@](O)(C(=O)C(=O)N3CCCC[C@H]3C(=O)O[C@H](/C(C)=C/[C@@H]3CC[C@@H](O)[C@H](OC)C3)[C@H](C)[C@@H](O)CC1=O)[C@H](C)C[C@@H]2OC [FK506]
- MST (day) (Median Survival Time): 10 days

Source: patent US20020132809A1, “Heterocyclic carboxamide derivatives as inhibitors of nitric oxide production” (Fujisawa Pharmaceutical Co. Ltd., priority 1998, published 2002)
